Experimental data published in the NIST ThermoML archive (doi:10.1016/j.tca.2019.178431).
Numbers after ± are expanded uncertainties.

Tests used:
[1] = Crystal; DTA
[2] = Molar enthalpy of transition or fusion; settings: Crystal; DSC

Normal melting temperature [1]: 143.00 ± 0.4 °C | Molar enthalpy of transition or fusion [2]: 8.36 ± 0.203 kcal/mol
SMILES: Clc1ccccc1C(c1ccccc1)(c1ccccc1)n1ccnc1 [1-((2-chlorophenyl)diphenylmethyl)-1H-imidazole]
